Values joined by “and” are separate entries in the source; they are usually repeats but may differ in a detail not shown here. Identical values can stand only once. Toxic doses and inconclusive results are not listed. Peptide text beside a SMILES is read from it. * marks the point of attachment. Cbz = O=C(OCc1ccccc1)*
Tested on: P388 leukemia ip, CD2F1 mice, survival T/C
Assay: NCI In Vivo Anticancer Drug Screen. Data for tumor model P388 Leukemia (intraperitoneal) in CD2F1 (CDF1) mice
Details: endpoint: median survival time, higher = longer survival
In short: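 Mice carrying the transplanted tumor received test compound or vehicle. Survival was recorded in each group, and the value is the treated-group measurement divided by that of the vehicle-treated control group.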

[1] = dose: 60.0 mg/kg/injection, schedule: Q01DX005 (ip), vehicle: saline with Tween-80
[2] = dose: 120.0 mg/kg/injection, schedule: Q01DX005 (ip), vehicle: saline with Tween-80
[3] = dose: 240.0 mg/kg/injection, schedule: Q01DX005 (ip), vehicle: saline with Tween-80
[4] = dose: 50.0 mg/kg/injection, schedule: Q01DX009 (ip), vehicle: Klucel (hydroxypropylcellulose) (HPC)
[5] = dose: 100.0 mg/kg/injection, schedule: Q01DX009 (ip), vehicle: Klucel (hydroxypropylcellulose) (HPC)
[6] = dose: 50.0 mg/kg/injection, schedule: Q01DX005 (ip), vehicle: saline with Tween-80
[7] = dose: 100.0 mg/kg/injection, schedule: Q01DX005 (ip), vehicle: saline with Tween-80
[8] = dose: 200.0 mg/kg/injection, schedule: Q01DX005 (ip), vehicle: saline with Tween-80
[9] = dose: 25.0 mg/kg/injection, schedule: Q01DX009 (ip), vehicle: Klucel (hydroxypropylcellulose) (HPC)
[10] = dose: 100.0 mg/kg/injection, schedule: Q04DX003 (ip), vehicle: saline
[11] = dose: 200.0 mg/kg/injection, schedule: Q04DX003 (ip), vehicle: saline
[12] = dose: 50.0 mg/kg/injection, schedule: Q01DX009 (ip), vehicle: saline with Tween-80
[13] = dose: 100.0 mg/kg/injection, schedule: Q01DX009 (ip), vehicle: saline with Tween-80
[14] = dose: 200.0 mg/kg/injection, schedule: Q01DX009 (ip), vehicle: saline with Tween-80
[15] = dose: 50.0 mg/kg/injection, schedule: Q01DX005 (ip), vehicle: Klucel (hydroxypropylcellulose) (HPC)
[16] = dose: 200.0 mg/kg/injection, schedule: Q01DX005 (ip), vehicle: Klucel (hydroxypropylcellulose) (HPC)

C=CCC1CCC/C1=N\O (centres undefined)
T/C [1]: 105 % of control
T/C [2]: 104 % of control
T/C [3]: 100 % of control

CCOC(=O)C(C(=O)c1ccccc1)C(C)(C)C (centres undefined)
T/C (dose: 37.5 mg/kg/injection, schedule: Q01DX009 (ip), vehicle: saline with Tween-80): 103 % of control
T/C (dose: 75.0 mg/kg/injection, schedule: Q01DX009 (ip), vehicle: saline with Tween-80): 105 % of control
T/C (dose: 150.0 mg/kg/injection, schedule: Q01DX009 (ip), vehicle: saline with Tween-80): 112 % of control

O=C(COc1ccc(Cl)cc1Cl)N1CCNC1=S
T/C [4]: 100 % of control
T/C [5]: 103 % of control
T/C (dose: 200.0 mg/kg/injection, schedule: Q01DX009 (ip), vehicle: Klucel (hydroxypropylcellulose) (HPC)): 100 % of control

Nc1ncnc2c1ncn2C1C=C(CO)C(O)C1O (centres undefined)
T/C (dose: 1.0 mg/kg/injection, schedule: Q01DX009 (ip), vehicle: saline): 163 % of control
T/C (dose: 2.0 mg/kg/injection, schedule: Q01DX009 (ip), vehicle: saline): 163 % of control
T/C (dose: 4.0 mg/kg/injection, schedule: Q01DX009 (ip), vehicle: Klucel (hydroxypropylcellulose) (HPC)): 161 % of control
T/C (dose: 4.0 mg/kg/injection, schedule: Q01DX009 (ip), vehicle: saline): 156 % of control
T/C (dose: 8.0 mg/kg/injection, schedule: Q01DX009 (ip), vehicle: Klucel (hydroxypropylcellulose) (HPC)): 153 % of control and 161 % of control
T/C (dose: 8.0 mg/kg/injection, schedule: Q01DX009 (ip), vehicle: saline): 152 % of control and 182 % of control

COc1cccc2c1[n+]([O-])c1cccc(O)c1[n+]2[O-]
T/C (dose: 1.56 mg/kg/injection, schedule: Q01DX009 (ip), vehicle: saline with Tween-80): 112 % of control
T/C (dose: 3.12 mg/kg/injection, schedule: Q01DX009 (ip), vehicle: saline with Tween-80): 109 % of control
T/C (dose: 6.25 mg/kg/injection, schedule: Q01DX009 (ip), vehicle: saline with Tween-80): 114 % of control
T/C (dose: 12.5 mg/kg/injection, schedule: Q01DX009 (ip), vehicle: saline with Tween-80): 124 % of control

O=C(O)c1cccc2c1SC(c1ccccc1)OC2=O (centres undefined)
T/C (dose: 50.0 mg/kg/injection, schedule: Q01DX005 (ip), vehicle: distilled water + alcohol): 103 % of control
T/C (dose: 100.0 mg/kg/injection, schedule: Q01DX005 (ip), vehicle: distilled water + alcohol): 99 % of control
T/C (dose: 200.0 mg/kg/injection, schedule: Q01DX005 (ip), vehicle: distilled water + alcohol): 109 % of control

COC(=O)Nc1cn2ccsc2n1
T/C [6]: 105 % of control
T/C [7]: 102 % of control
T/C [8]: 105 % of control

CCCCCCCCCCCC(C)NCc1ccccc1 (centres undefined)
T/C (dose: 6.25 mg/kg/injection, schedule: Q01DX009 (ip), vehicle: Klucel (hydroxypropylcellulose) (HPC)): 103 % of control
T/C (dose: 12.5 mg/kg/injection, schedule: Q01DX009 (ip), vehicle: Klucel (hydroxypropylcellulose) (HPC)): 112 % of control
T/C [9]: 99 % of control
T/C [4]: 105 % of control

CCN(CC)CCOC(C)(C)C#CC(C)(C)O
T/C [6]: 100 % of control
T/C [7]: 99 % of control
T/C [8]: 99 % of control

Clc1ccnc2ccc3ccccc3c12
T/C (dose: 50.0 mg/kg/injection, schedule: Q01DX009 (ip), vehicle: saline): 107 % of control
T/C (dose: 100.0 mg/kg/injection, schedule: Q01DX009 (ip), vehicle: saline): 100 % of control and 101 % of control
T/C (dose: 200.0 mg/kg/injection, schedule: Q01DX009 (ip), vehicle: saline): 100 % of control and 92 % of control

C=CCn1c(=O)n(CC)c(=O)c2[nH]c(C(F)(F)F)nc21
T/C [9]: 99 % of control
T/C [4]: 102 % of control
T/C [5]: 112 % of control

[O-][N+](=C1c2ccccc2-c2ccccc21)c1ccccc1
T/C (dose: 50.0 mg/kg/injection, schedule: Q04DX003 (ip), vehicle: saline): 109 % of control
T/C [10]: 118 % of control
T/C [11]: 95 % of control

Oc1ccccc1-c1cc(-c2ccccc2)nc(NCCCCCCCCNc2nc(-c3ccccc3)cc(-c3ccccc3O)n2)n1
T/C [10]: 92 % of control
T/C [11]: 94 % of control
T/C (dose: 400.0 mg/kg/injection, schedule: Q04DX003 (ip), vehicle: saline): 88 % of control

COC(=O)CC(C)CC(=O)O (centres undefined)
T/C [12]: 100 % of control
T/C [13]: 107 % of control
T/C [14]: 100 % of control

Nc1nc2c(-c3ccc([N+](=O)[O-])cc3)nnn2c2cccc(Cl)c12
T/C [1]: 98 % of control
T/C [2]: 99 % of control
T/C [3]: 97 % of control

COc1cc2c(cc1OC)-c1ccc(OC)c(=O)cc1CC(NC(=O)C(C)=O)C2 (centres undefined)
T/C (dose: 0.63 mg/kg/injection, schedule: Q01DX009 (ip), vehicle: Klucel (hydroxypropylcellulose) (HPC)): 153 % of control
T/C (dose: 1.25 mg/kg/injection, schedule: Q01DX009 (ip), vehicle: Klucel (hydroxypropylcellulose) (HPC)): 105 % of control
T/C (dose: 78.0 micrograms/kg/injection, schedule: Q01DX009 (ip), vehicle: Klucel (hydroxypropylcellulose) (HPC)): 120 % of control
T/C (dose: 625.0 micrograms/kg/injection, schedule: Q01DX009 (ip), vehicle: Klucel (hydroxypropylcellulose) (HPC)): 151 % of control

CCN(CC)C1CC(C)(O)Cc2cc3c(c(O)c21)C(=O)c1c(O)cc2c(c1C3=O)OC1OC2(C)C(O)C(N(C)C)C1O (centres undefined)
T/C (dose: 50.0 mg/kg/injection, schedule: Q01DX009 (ip), vehicle: other): 93 % of control

Cc1ccc(SC(=O)N2CCN(C(=O)Sc3ccc(C)cc3)CC2)cc1
T/C [4]: 93 % of control
T/C [5]: 89 % of control

CC(O)c1cc2c(cc1I)OCO2 (centres undefined)
T/C (dose: 100.0 mg/kg/injection, schedule: Q01DX001 (ip), vehicle: Klucel (hydroxypropylcellulose) (HPC)): 106 % of control
T/C (dose: 200.0 mg/kg/injection, schedule: Q01DX001 (ip), vehicle: Klucel (hydroxypropylcellulose) (HPC)): 108 % of control
T/C (dose: 400.0 mg/kg/injection, schedule: Q01DX001 (ip), vehicle: Klucel (hydroxypropylcellulose) (HPC)): 107 % of control

O=P1(O)OC[C@H]2CCC[C@@H]2O1
T/C (dose: 60.0 mg/kg/injection, schedule: Q01DX005 (ip), vehicle: saline): 106 % of control
T/C (dose: 120.0 mg/kg/injection, schedule: Q01DX005 (ip), vehicle: saline): 97 % of control

N#Cc1c(-c2ccccc2)c(-c2ccccc2)nn(CCO)c1=O
T/C (dose: 25.0 mg/kg/injection, schedule: Q04DX002 (ip), vehicle: distilled water + Tween-80): 94 % of control
T/C (dose: 50.0 mg/kg/injection, schedule: Q04DX002 (ip), vehicle: distilled water + Tween-80): 103 % of control
T/C (dose: 100.0 mg/kg/injection, schedule: Q04DX002 (ip), vehicle: distilled water + Tween-80): 108 % of control
T/C (dose: 200.0 mg/kg/injection, schedule: Q04DX002 (ip), vehicle: distilled water + Tween-80): 110 % of control

CC(NC(=O)OCc1ccccc1)C(=O)NC(CO)C(N)=O (stereo not drawn) (Cbz-Ala-Ser-NH2; configuration not given here)
T/C [15]: 97 % of control
T/C (dose: 100.0 mg/kg/injection, schedule: Q01DX005 (ip), vehicle: Klucel (hydroxypropylcellulose) (HPC)): 98 % of control
T/C [16]: 102 % of control

CCn1cc(C(=O)O)c(=O)c2nc(N3CCOCC3)sc21
T/C [1]: 106 % of control
T/C [2]: 95 % of control
T/C [3]: 98 % of control

CC(/C=N\N=C(N)N)=N/N=C(N)N
T/C (dose: 14.6 mg/kg/injection, schedule: Q01DX009 (ip), vehicle: saline): 100 % of control
T/C (dose: 22.0 mg/kg/injection, schedule: Q01DX009 (ip), vehicle: saline): 120 % of control

COC(=O)c1ccccc1SSCCN
T/C (dose: 12.5 mg/kg/injection, schedule: Q01DX005 (ip), vehicle: saline with Tween-80): 100 % of control
T/C (dose: 25.0 mg/kg/injection, schedule: Q01DX005 (ip), vehicle: saline with Tween-80): 106 % of control
T/C [6]: 101 % of control and 109 % of control

CCCn1c(CC)nc([N+](=O)[O-])c1Sc1ncn[nH]1
T/C (dose: 25.0 mg/kg/injection, schedule: Q01DX005 (ip), vehicle: Klucel (hydroxypropylcellulose) (HPC)): 123 % of control
T/C [15]: 108 % of control
T/C [16]: 113 % of control

CCOC(=O)Nc1ccc(C2SCCN2C(=O)NC)cc1 (centres undefined)
T/C [1]: 109 % of control
T/C [2]: 103 % of control
T/C [3]: 100 % of control

CC(=O)Oc1ccccc1C#CC(=O)O
T/C [12]: 96 % of control
T/C [13]: 90 % of control
T/C [14]: 94 % of control

C/C=C\c1ccc(OC(=O)NC)c(OC)c1
T/C [1]: 100 % of control
T/C [2]: 104 % of control
T/C [3]: 100 % of control

Source: PubChem BioAssay AID330 (DTP/NCI, 2004)
